Source: patent US20250228242A1 (priority 2021, published 2025)
Structures can show the parent of a compound that is named as a salt.

Tests used:
Albugo laibachii [1] = assay: Albugo laibachii on A. thaliana, syringe infiltration of compound, visual scoring of disease severity; format: in vivo; settings: in Arabidopsis thaliana, 100 μM in 1% DMSO syringe infiltrated into adult A. thaliana, visually scored at nine dpi, read-out: A. laibachii Inhibitory effect
Protocol: (§1) A. thaliana seeds were stratified on moist soil (Einheitserde type A240, Stender, Germany) for seven days at 4° C. in darkness, before transfer into growth chambers with short day conditions (10 h light, 14 h darkness, 23/20° C., 60% humidity). After three weeks, seedlings were singularised and grown for three weeks further. After six weeks, A. thaliana plants were used for experiments and after infection they were transferred into SANYO (Panasonic MLR-352, Japan) growth cabinets (10 h light, 14 h darkness, 22/16° C.). Potato plants were grown from tubers by covering them with soil (Einheitserde type A240, Stender, Germany). The leaves of adult plants (˜4-6 weeks old) were cut off and kept in a moist environment for infection assays.
(§2) For regular Albugo sp. infections A. thaliana Ws-0 was sprayed with an Albugo sp. conidiospores solution. These spore solutions were prepared by harvesting sporulating leaf material at 14 days post infection (dpi) and adding water for rehydration of the spores. Spore solutions were hold on ice for ˜1 h, before filtering through miracloth (Merck Millipore, Germany) to remove dirt. Spores were counted and the solutions diluted to 22.2×10^4 conidiospores/ml. Albugo sp. spore solutions were sprayed uniformly on A. thaliana leaves (4.5 ml per six plants) using an airbrush gun. During spraying, plants were placed in a plastic bag and afterwards transferred into a cold room to incubate at 4° C. in darkness (˜16 h). The next morning, plants were transferred into plant growth cabinets, but left in clear bags to keep humidity high, which supports Albugo sp. infections. ˜24 h later plants were unbagged and further incubated under normal plant growth conditions.
(§3) Afterwards, the plants were kept in the lab for ˜1 h to let the leaves equilibrate again. The infiltrated plants were infected with Albugo sp., following the above-mentioned protocol. At 7 dpi, infiltrated leaves were phenotypically scored and harvested. The samples were frozen in liquid nitrogen and stored at −80° C. until DNA extraction for growth quantification via qPCR. For experiment 4, A. candida spore solutions were prepared as before and mixed with 10 mM stock solution of the test compound (100 μM end conc.). The mixture of spore solution and test compound was sprayed and incubated as for experiment 2 and 3.
(§4) • Fungicidal activity against other oomycetes was tested using isolates of the obligate biotrophic pathogen genus Albugo on Arabidopsis thaliana. The test compounds, 100 μM in 1% DMSO, were syringe infiltrated into adult A. thaliana and subsequently sprayed with aqueous spore solutions of Albugo laibachii or A. candida. In primary screenings, disease severity was visually screened and scored at nine days post infection (dpi) (Table 2+3).

Rhodococcus sp. = assay: Bacterial liquid culture growth curves (OD600), Rhodococcus sp.; settings: 18.5 h, read-out: Absolute growth rate relative to mock control, Rhodococcus sp.
[2] = test system: Pseudomonas syringae pv. tomato (Pto) DC3000; assay: Bacterial liquid culture growth curves (OD600), Pto DC3000; settings: 18.5 h, read-out: Absolute growth rate relative to mock control, Pto DC3000
P. infestans = assay: whole plant or invertebrate; format: in vivo; settings: Phytophthora infestans, in Solanum tuberosum, read-out: P. infestans % inhibition
Phytophthora infestans = assay: whole plant or invertebrate; format: in vivo; settings: in Solanum tuberosum, 120 h, read-out: P. infestans % inhibition
Albugo candida [3] = assay: Albugo candida on A. thaliana, syringe infiltration of compound, visual scoring of disease severity; format: in vivo; settings: in Arabidopsis thaliana, read-out: A. candida Inhibitory effect
Protocol: as §1, §2, §3, §4

A. candida = A. candida growth on A. thaliana after spray application of spore solution mixed with compound, qPCR; format: in vivo, Albugo candida; settings: for inhibition at 100 µM: Candida, in Arabidopsis thaliana, spray application of spore solution mixed with 100 μM compound in 1% DMSO, qPCR at 7 dpi, A. thaliana
Albugo laibachii [4] = assay: Albugo laibachii growth on A. thaliana after syringe infiltration, quantified via qPCR; format: in vivo; settings: for inhibition at 100 µM: Albugo laibachii, in Arabidopsis thaliana, qPCR at 7 dpi, A. thaliana; for inhibition of A. laibachii growth (in words): Table 4, qPCR at 7 dpi, p 5 0.05
Albugo candida [5] = assay: Albugo candida growth on A. thaliana after syringe infiltration, quantified via qPCR; format: in vivo; settings: for inhibition at 100 µM: Albugo candida, in Arabidopsis thaliana, qPCR at 7 dpi, A. thaliana; for inhibition of A. candida growth (in words): Table 4, qPCR at 7 dpi

Structure (SMILES)	inhibition at 100 µM (Albugo laibachii [1]) [%]	activity at 100 µM (Rhodococcus sp.) [%]	activity at 100 µM [2] [%]	inhibition at 100 µM (Phytophthora infestans) [%]	other results
Oc1cccc(-c2cc(-c3ccc4c(c3)OCO4)n[nH]2)c1 [Compound 34, 3-(1,3-Benzodioxol-5-yl)-5-(3-hydroxyphenyl)-1H-pyrazole]	30 to 70	-1	56		
COc1ccc(-c2cc(-c3cccc(O)c3)[nH]n2)cc1OC [Compound 33, 3-(3,4-Dimethoxyphenyl)-5-(3-hydroxyphenyl)-1H-pyrazole]		6	90	85	inhibition at 100 µM (P. infestans): 84%
Nc1ccc(-c2cc(-c3cccc(Cl)c3)[nH]n2)cc1 [Compound 39, 3-(4-Aminophenyl)-5-(3-chlorophenyl)-1H-pyrazole]	30 to 70	-1	94		
Br.Oc1ccc(-c2cc(-c3ccc(Cl)cc3)[nH]n2)cc1 [Compound 36, 5-(4-Chlorophenyl)-3-(4-hydroxyphenyl)-1H-pyrazole hydrobromide]		9	104	95	inhibition at 100 µM (P. infestans): 85%; inhibition at 100 µM (Albugo candida [3]): > 70%; inhibition at 100 µM (A. candida): 94%; growth inhibition of A. candida (in words) (A. candida; Table 5, spore solution mixed with compound, sprayed): strong growth inhibition
Brc1ccccc1-c1cc(-c2ccc3c(c2)OCO3)n[nH]1 [Compound 10, 3-(1,3-Benzodioxol-5-yl)-5-(2-bromophenyl)-1H-pyrazole]		24	111	82	inhibition at 100 µM (Albugo laibachii [4]): 36%; inhibition at 100 µM (Albugo candida [5]): 68%; inhibition of A. candida growth (in words) (Albugo candida [5]): strong inhibition
COc1ccc(-c2cc(-c3ccc(OC)c(OC)c3)on2)cc1OC [Compound 43, 3,5-Bis(3,4-dimethoxyphenyl)isoxazole]		75	114		inhibition at 100 µM (Albugo candida [3]): > 70%
Oc1ccc(-c2cc(-c3cccc(Br)c3)[nH]n2)cc1O [Compound 4, 5-(3-Bromophenyl)-3-(3,4-dihydroxyphenyl)-1H-pyrazole]	5 to 30	-1	48		
Oc1ccc(-c2cc(-c3ccc(O)c(O)c3)on2)cc1 [Compound 22, 5-(3,4-Dihydroxyphenyl)-3-(4-hydroxyphenyl)isoxazole]	> 70			63	inhibition at 100 µM (Albugo laibachii [4]): 49%; inhibition of A. laibachii growth (in words) (Albugo laibachii [4]): significantly inhibited; inhibition at 100 µM (Albugo candida [5]): 53%; inhibition of A. candida growth (in words) (Albugo candida [5]): strong inhibition
CN(C)c1ccc(-c2cc(-c3cccc(Br)c3)[nH]n2)cc1 [Compound 13, 5-(3-Bromophenyl)-3-[4-(dimethylamino)phenyl]-1H-pyrazole]	> 70				
COc1ccc(-c2cc(-c3ccc(OC)c(OC)c3)on2)cc1 [Compound 19, 5-(3,4-Dimethoxyphenyl)-3-(4-methoxyphenyl)isoxazole]		58	95	26	inhibition at 100 µM (Albugo laibachii [4]): 59%; inhibition of A. laibachii growth (in words) (Albugo laibachii [4]): significantly inhibited; inhibition at 100 µM (Albugo candida [3]): > 70%; inhibition at 100 µM (Albugo candida [5]): 70%; inhibition of A. candida growth (in words) (Albugo candida [5]): strong inhibition
Oc1cc(-c2cc(-c3cc(Br)cc(Br)c3)[nH]n2)cc(O)c1O [Compound 6, 5-(3,5-Dibromophenyl)-3-(3,4,5-trihydroxyphenyl)-1H-pyrazole]	> 70	1	73		
Cn1nc(-c2ccc3c(c2)OCO3)cc1-c1cccc(Br)c1 [Compound 41, 3-(1,3-Benzodioxol-5-yl)-5-(3-bromophenyl)-1-methyl-1H-pyrazole]	30 to 70	62	106		
Ic1cccc(-c2cc(-c3ccc4c(c3)OCO4)n[nH]2)c1 [Compound 8, 3-(1,3-Benzodioxol-5-yl)-5-(3-iodophenyl)-1H-pyrazole]	5 to 30	35	100		
Oc1ccc(-c2cc(-c3cccc(F)c3)[nH]n2)cc1O [Compound 16, 3-(3,4-Dihydroxyphenyl)-5-(3-fluorophenyl)-1H-pyrazole]	30 to 70	0	66		
Br.Oc1ccc(-c2noc(-c3ccc(O)c(O)c3)n2)cc1O [Compound 24, 3,5-Bis(3,4-Dihydroxyphenyl)-1,2,4-oxadiazole hydrobromide]		19	95	80	inhibition at 100 µM (Albugo laibachii [4]): 16%; inhibition at 100 µM (Albugo candida [3]): > 70%; inhibition at 100 µM (Albugo candida [5]): 80%; inhibition of A. candida growth (in words) (Albugo candida [5]): strong inhibition; inhibition at 100 µM (A. candida): 41%
FC(F)(F)c1cccc(-c2cc(-c3ccc4c(c3)OCO4)n[nH]2)c1 [Compound 11, 3-(1,3-Benzodioxol-5-yl)-5-[3-(trifluoromethyl)phenyl]-1H-pyrazole]	5 to 30	110	81		
Oc1ccc(-c2c[nH]c(-c3ccc(O)c(O)c3)n2)cc1O [Compound 28, 2,4-Bis(3,4-dihydroxyphenyl)-1H-imidazole hydrobromide]	30 to 70	71	49	30	inhibition at 100 µM (Albugo laibachii [4]): 4%; inhibition at 100 µM (Albugo candida [5]): 49%
Clc1cccc(-c2cc(-c3ccc4c(c3)OCO4)n[nH]2)c1 [Compound 35, 3-(1,3-Benzodioxol-5-yl)-5-(3-chlorophenyl)-1H-pyrazole]	30 to 70	11	85		
Oc1ccc(-c2cc(-c3cc(O)c(O)c(O)c3)n[nH]2)cc1O [Compound 5, 5-(3,4-Dihydroxyphenyl)-3-(3,4,5-trihydroxyphenyl)-1H-pyrazole]		64	40	89	inhibition at 100 µM (Albugo candida [3]): > 70%
COc1cccc(-c2cc(-c3ccc4c(c3)OCO4)n[nH]2)c1 [Compound 9, 3-(1,3-Benzodioxol-5-yl)-5-(3-methoxyphenyl)-1H-pyrazole]	30 to 70	8	100		
COc1ccc(-c2cc(-c3cccc(Br)c3)[nH]n2)cc1OC [Compound 29, 5-(3-Bromophenyl)-3-(3,4-dimethoxyphenyl)-1H-pyrazole]	30 to 70	62	88		
Brc1ccc(-c2cc(-c3ccc4c(c3)OCO4)n[nH]2)cc1 [Compound 38, 3-(1,3-Benzodioxol-5-yl)-5-(4-bromophenyl)-1H-pyrazole]	> 70				inhibition at 100 µM (Albugo laibachii [4]): 50%; inhibition of A. laibachii growth (in words) (Albugo laibachii [4]): significantly inhibited; inhibition at 100 µM (Albugo candida [5]): 53%; inhibition of A. candida growth (in words) (Albugo candida [5]): strong inhibition
Nc1ccc(-c2cc(-c3cccc(Br)c3)[nH]n2)cc1 [Compound 40, 3-(4-Aminophenyl)-5-(3-bromophenyl)-1H-pyrazole]	> 70	-1	91		
Fc1cccc(-c2cc(-c3ccc4c(c3)OCO4)n[nH]2)c1 [Compound 7, 3-(1,3-Benzodioxol-5-yl)-5-(3-fluorophenyl)-1H-pyrazole]	30 to 70	14	98		
